Legend:
[1] = system: IFNβ and CXCL10 gene expression; test: RT-PCR of dsRNA (poly I:C) and dsDNA (poly dA:dT) induced gene expression in 293T cells; format: cell-based, human; conditions: 1 uM, 6 hrs
[2] = system: 293T cells; test: Intracellular sodium concentration measurement (SBFI) in 293T cells; format: cell-based, human; conditions: 1 μM, 30 minutes; from about 20 mM without
Description: Bound RIG-I protein was analyzed by western blot (top panel). The expression of IFNβ and Cxcl 10 genes in these cells was also analyzed by RT-PCR (bottom panel). FIG. 3B, high salt concentration inhibits RIG-I helicase activities while the effect on RNA binding is minor. Recombinant RIG-I protein was incubated with dsRNA (67 bp) in the presence of increasing NaCl and KCl concentrations. RNA binding was monitored by native agarose gel analysis (top panel). For the ATPase activities, samples were adjusted to 1 mM ATP and further incubated for 15 min at 37° C., free phosphate released was measured with BIOMOL GREEN reagent. The image of the plate was shown in the bottom panel, and signals from the reading were quantified and graphed in the middle panel. The lanes of the gel, bars of the graph and wells in the ATPase assay are aligned according to experimental conditions. […] 293T cells were loaded with 10 μM SBFI-AM in the presence of 0.02% Pluronic F-127 for 1 hour at 37° C. […] To generate the standard curve, SBFI-Am loaded cells were exposed to solutions with increasing concentrations of sodium in the presence of 10 μM gramicidin for 30 minutes at 37° C. and 340/380 nm fluorescence ratio determined. […]

[3] = system: mice; test: LPS induced lethality in mice; format: in vivo; conditions: 15 μg/mouse i.p. 30 min before LPS 80 mg/kg i.p.; 4 days
Description: The survival of injected animals was closely monitored for 4 days.

## C[C@]12CC[C@H](O)C[C@H]1CC[C@@H]1[C@H]2CC[C@]2(C)[C@@H](c3ccc(=O)oc3)CC[C@]12O [Bufalin]
[1]
  IFNβ and CXCL10 gene expression in response to poly I:C and poly dA:dT: strongly inhibited
[2]
  intracellular sodium concentration: over 120 mM
[3]
  lethality induced by a high dose of LPS: partially reduce
